Measured values reported in patent US20110203018A1, “Use of Carboxamides on Cultivated Plants” (BASF SE, priority 2008, published 2011).

Experiments:
oilseed rape = assay: Field trial: oilseed rape grain yield; assay type: in vivo
Procedure: Oilseed rape was grown in 2002 at the Verde in France. The variety Colosse was planted at a seeding rate of 3 kg/ha. Row spacing was 17 cm. Plot size was 30 m^2. […] The formulation was diluted in a total spray volume of 300 l/ha.
At maturity, the plants were harvested and the grain yield was measured (Tab. 4).

Leptosphaeria maculans = assay: Field trial: Leptosphaeria maculans in oilseed rape (stem scoring, disease index); assay type: in vivo
maize [1] = assay: Field trial: green leaf retention in maize (green leaf area); assay type: in vivo
Excerpt: The variety DKB 390 was planted at a seeding rate of 60,000 plants per ha. Row spacing was 80 cm. Plot size was 30 m^2. […] Green leaf retention was estimated in treated and control plants by estimating the green leaf area 28 days after treatment in 10 randomly chosen plants per plot.

Rhizoctonia solani = assay: Field trial: efficacy against Rhizoctonia solani in rice (infected leaf area, frequency of infection); assay type: in vivo
Procedure: Imidazolinone tolerant rice ([…]) was grown in 2008 at Washington, 7033 Highway 103, LA, USA. […] Row spacing was 18 cm. Plot size was 27.5 m^2. […] Infection with Rhizoctonia solani 77 days after treatment with COMPOUND 2 was assessed (Tab. 3) by estimating the infected leaf area and frequency of infection in 10 randomly chosen plants per plot.

maize [2] = assay: Field trial: maize grain yield and thousand grain weight (TGW); assay type: in vivo
Procedure: The variety DKB 390 was planted at a seeding rate of 60,000 plants per ha. Row spacing was 80 cm. Plot size was 30 m^2. […] At maturity, the plants were harvested and the grain yield and thousand grain weight (TGW) were measured (Tab. 2).

[3] = system: Asian Soybean Rust (Phakopsora pachyrhizi); assay: Field trial: efficacy against Asian Soybean Rust in soybeans (infected leaf area); conditions: for Efficacy against soybean rust (%): soybeans, field, EC, assessed 20 days after last treatment, infection in Control 95% infected leaf area
[4] = system: common rust (Puccinia sorghi); assay: Field trial: efficacy against common rust in maize (infected leaf area); assay type: in vivo
Excerpt: The variety DKB 390 was planted at a seeding rate of 60,000 plants per ha. Row spacing was 80 cm. Plot size was 30 m^2.

rice = assay: Field trial: rice grain yield; assay type: in vivo
Procedure: Imidazolinone tolerant rice ([…]) was grown in 2008 at Washington, 7033 Highway 103, LA, USA. […] Row spacing was 18 cm. Plot size was 27.5 m^2. […] At maturity, the plants were harvested and the grain yield was measured (Tab. 3).

soybeans = assay: Field trial: soybean grain yield and thousand grain weight (TGW); assay type: in vivo; conditions: for Grain Yield (dt/ha) / TGW: soybeans, field, EC; for Grain Yield (dt/ha): Control 16.6; for TGW: Control 113.9
[5] = herbicide tolerant oilseed rape variety
[6] = 30 g AI/ha applied twice (BBCH 55/61 and 65/71)
[7] = 50 g AI/ha applied twice (application time BBCH 19)

## O=C(Nc1ccccc1-c1ccc(Cl)cc1)c1cccnc1Cl [BOSCALID, boscalid]
Oilseed rape; [5]
  grain yield, combination of treatment with herbicide tolerant variety: synergistic effects
  increase in grain yield versus expected from single effects: bigger
Oilseed rape; oilseed rape Colosse, field, 50 g/ha, WG (Cantus), BBCH 16, Control 33.9
  Grain Yield (dt/ha): 49.3 dt/ha
Oilseed rape; oilseed rape field trial
  grain yield compared to the untreated control: increase
Leptosphaeria maculans; herbicide tolerant (imidazolinone resistance) oilseed rape variety
  activity against Leptosphaeria maculans versus expected from combination of effects: increased
Leptosphaeria maculans; [5]
  disease control, combination of treatment with herbicide tolerant variety: synergistic effects
Leptosphaeria maculans; oilseed rape Colosse, field, 50 g/ha, WG (Cantus), BBCH 16, 209 days after treatment, Control 3.17, infection rate in Control 49%
  LEPTMA disease index: 1.71
Leptosphaeria maculans; oilseed rape field trial, Cantus WG 500 g/kg, 0.5 kg/ha, once, 209 days after treatment
  activity against Leptosphaeria maculans in oilseed rape: good activity

## Cn1cc(C(=O)Nc2ccccc2-c2cc(F)c(F)c(F)c2)c(C(F)F)n1 [COMPOUND 2, N-(3′,4′,5′-trifluorobiphenyl-2-yl)-3-difluoromethyl-1-methyl-1H-pyrazole-4-carboxamide]
Maize [1]; maize DKB 390, field, 50 g/ha, EC, BBCH 51/55, 28 days after treatment, Control 34
  Green Leaf Area (%): 40%
Maize [1]; maize field trial, 28 days after treatment
  green leaf area compared to control plants: increase
Maize [1]; transgenic maize plants
  increase in green leaf tissue versus expected from combination of effects: bigger
Rhizoctonia solani; CL 161 rice
  disease control, combination of treatment with Imidazolinone tolerance trait: synergistic effects
Rhizoctonia solani; Imidazolinone tolerant rice CL 161, field, 50 g/ha, EC, BBCH 32/34, 77 days after treatment
  Efficacy against Rhizctonia (%) Frequency: 45.6%
Rhizoctonia solani; Imidazolinone tolerant rice CL 161, field, 50 g/ha, EC, BBCH 32/34, 77 days after treatment, infection in Control 8% infected leaf area
  Efficacy against Rhizctonia (%) Infection: 50%
Rhizoctonia solani; Imidazolinone tolerant rice variety (CL 161)
  activity against Rhizoctonia compared with a variety without the herbicide tolerance trait: higher
Rhizoctonia solani; rice field trial, EC 62.5 g/l, 0.8 l/ha, once, 77 days after treatment
  activity against Rhizoctonia in rice: active
Maize [2]; maize DKB 390, field, 50 g/ha, EC, BBCH 51/55, Control 49.2
  Grain Yield (dt/ha): 55.2 dt/ha
Maize [2]; maize DKB 390, field, 50 g/ha, EC, BBCH 51/55, Control 325
  TGW: 333 g
Maize [2]; maize field trial
  grain weight of harvested grain over the untreated control: increased
  grain yield compared to the untreated control: increase
Maize [2]; transgenic maize variety
  grain yield, combination of treatment with transgenic variety: synergistic effects
  increase in grain yield and in grain weight versus expected from single effects: much bigger
[3]; soybean field trial, EC 62.5 g/l, 0.48 l/ha and 0.8 l/ha, applied twice, 20 days after last treatment
  activity against Asian Soybean Rust: good activity
[3]; [6]
  Efficacy against soybean rust (%): 34%
[3]; [7]
  Efficacy against soybean rust (%): 46%
[3]; transgenic glyphosate tolerant soybean variety
  activity against Asian Soybean Rust versus expected from single effects: increased
[3]; transgenic soybean variety
  disease control, combination of treatment with transgenic variety: synergistic effects
[4]; maize DKB 390, field, 50 g/ha, EC, BBCH 51/55, 28 days after treatment, infection in Control 8.8% infected leaf area
  Efficacy against rust (%): 88.6%
[4]; maize field trial, EC 62.5 g/l, 0.8 l/ha, once, 28 days after treatment
  activity against common rust in maize: good activity
[4]; transgenic glyphosate tolerant and/or insect resistant maize varieties
  activity against common rust versus expected from single effects: increased
[4]; transgenic maize variety
  disease control, combination of treatment with transgenic variety: synergistic effects
rice; CL 161 rice
  grain yield, combination of treatment with Imidazolinone tolerance trait: synergistic effects
rice; Clearfield variety (CL 161)
  increase in grain yield compared with a conventional variety: bigger
rice; Imidazolinone tolerant rice CL 161, field, 50 g/ha, EC, BBCH 32/34, Control 37.76
  Grain Yield (dt/ha): 54.28 dt/ha
rice; rice field trial
  grain yield compared to the untreated control: increase
soybeans; soybean field trial
  grain weight of harvested grain versus the untreated: increased
  grain yield compared to the untreated control: increase
soybeans; [6]
  Grain Yield (dt/ha): 21.6 dt/ha
  TGW: 143.5 g
soybeans; [7]
  Grain Yield (dt/ha): 22.9 dt/ha
  TGW: 144.1 g
soybeans; transgenic soybean variety
  grain yield, combination of treatment with transgenic variety: synergistic effects
  increase in grain yield and in grain weight versus expected from single effects: much bigger
